# Measured values: ChEMBL document CHEMBL4808226, “Optimization of the Urea Linker of Triazolopyridazine MMV665917 Results in a New Anticryptosporidial Lead with Improved Potency and Predicted hERG Safety Margin” (J Med Chem, 2021)
# Active and inactive are the calls of the source. The calls are words filed in the database; no cut-off is given here.
# How the values were obtained:
# Cryptosporidium parvum [1] = assay: Anti-cryptosporidial activity against Cryptosporidium parvum infected in HCT-8 cells pre-infected for 3 hrs followed by compound treatment and measured after 45 hrs by fluorescence microscopy analysis; type: functional, organism-based
# Cryptosporidium parvum [2] = assay: Anti-cryptosporidial activity against Cryptosporidium parvum infected in HCT-8 cells assessed as rate of parasite elimination at above EC90 concentration pre-infected for 24 hrs followed by compound treatment; type: functional, organism-based
# hERG (KCNH2) [3] = biological target: T1, hERG (KCNH2) (Homo sapiens, UniProt Q12809); assay: Displacement of [3H]-dofetilide from human ERG at 10 uM relative to control; details: probe [3H]-dofetilide
# hERG (KCNH2) [4] = biological target: T1, hERG (KCNH2); assay: Inhibition of human ERG expressed in CHO cells at 100 uM by automated patch clamp electrophysiology assay relative to control; type: cell-based; details: CHO cells that express hERG
# [5] = Metabolic stability in human liver microsomes assessed as half life at 2 uM measured up to 30 mins in presence of NADPH by LC-MS/MS analysis; type: ADME, Microsome; details: microsomes, 0.5 h, 2 µM
# [6] = Metabolic stability in mouse liver microsomes assessed as half life at 2 uM measured up to 30 mins in presence of NADPH by LC-MS/MS analysis; type: ADME, Microsome; details: 0.5 h
# Cryptosporidium parvum [7] = assay: Anti-cryptosporidial activity against Cryptosporidium parvum infected in HCT-8 cells assessed as rate of parasite elimination at 6 times of EC90 concentration pre-infected for 24 hrs followed by compound treatment; type: functional, organism-based
# hERG (KCNH2) [8] = biological target: T1, hERG (KCNH2); assay: Inhibition of human ERG expressed in CHO cells at 10 uM by automated patch clamp electrophysiology assay relative to control; type: cell-based; details: CHO cells that express hERG
# Cryptosporidium hominis = assay: Anti-cryptosporidial activity against Cryptosporidium hominis infected in HCT-8 cells pre-infected for 3 hrs followed by compound treatment and measured after 45 hrs by fluorescence microscopy analysis; type: functional, organism-based
# [9] = Efflux ratio of apparent permeability across basolateral to apical side over apical to basolateral side in […] cells at 10 uM after 2 hrs; type: ADME, cell-based; details: mdckii-mdr1, 2 h, 10 µM
# hERG (KCNH2) [10] = biological target: T1, hERG (KCNH2); assay: Inhibition of human ERG expressed in CHO cells at 1 uM by automated patch clamp electrophysiology assay relative to control; type: cell-based; details: CHO cells that express hERG
# [11] = Kinetic aqueous solubility of the compound in pH 7.4; type: physicochemical; details: buffer, read-out: Kinetic_solubility
# HCT-8 = assay: Cytotoxicity against human HCT8 cells assessed as reduction in cell viability after 48 hrs by CellTiter aqueous assay; type: cell-based; details: hct-8, 48 h
# [12] = Volume of distribution in CD1 mouse jejunum at 1 mg/kg, iv measured upto 6 hrs by LC-MS/MS anlaysis; type: ADME, organism-based; details: in vivo
# hERG (KCNH2) [13] = biological target: T1, hERG (KCNH2); assay: Antagonist activity at human ERG relative to control
# [14] = AUC in CD1 mouse plasma at 1 mg/kg, iv measured upto 6 hrs by LC-MS/MS anlaysis; type: ADME, organism-based; parameters: route intravenous, dose 1 mg/kg, time <=6; details: in vivo
# [15] = Protein binding in mouse plasma at 10 uM after 6 hrs by LC-MS/MS based equilibrium dialysis method; type: ADME, cell-free
# [16] = Half life in CD1 mouse jejunum at 1 mg/kg, iv measured upto 6 hrs by LC-MS/MS anlaysis; type: ADME, organism-based; details: in vivo
# [17] = Cmax in CD1 mouse jejunum at 1 mg/kg, iv measured upto 6 hrs by LC-MS/MS anlaysis; type: ADME, organism-based; parameters: route intravenous, dose 1 mg/kg, time <=6; details: in vivo
# CYP2C9 = CYP2C9 (Homo sapiens, UniProt P11712); assay: Inhibition of CYP2C9 (unknown origin) at 10 uM relative to control; type: ADME
# [18] = AUC in CD1 mouse jejunum at 1 mg/kg, iv measured upto 6 hrs by LC-MS/MS anlaysis; type: ADME, organism-based; parameters: route intravenous, dose 1 mg/kg, time <=6; details: in vivo
# [19] = Protein binding in human plasma at 10 uM after 6 hrs by LC-MS/MS based equilibrium dialysis method; type: ADME, cell-free
# [20] = Oral bioavailability in CD1 mouse jejunum at 10 mg/kg measured upto 24 hrs by LC-MS/MS anlaysis; type: ADME, organism-based; details: in vivo
# [21] = Half life in CD1 mouse plasma at 1 mg/kg, iv measured upto 6 hrs by LC-MS/MS anlaysis; type: ADME, organism-based; details: in vivo
# Cryptosporidium parvum [22] = assay: Anti-cryptosporidial activity against Cryptosporidium parvum infected in NSG mouse assessed as reduction in parasite infection at 50 mg/kg, po administered twice daily for 11 days by qPCR analysis; type: functional; parameters: scale not given: the % may be the effect or the level left; details: time 11 day
# Cryptosporidium parvum [23] = assay: Anti-cryptosporidial activity against Cryptosporidium parvum infected in NSG mouse assessed as reduction in parasite infection at 50 mg/kg, po administered twice daily for 21 days by qPCR analysis; type: functional, organism-based; details: time 21.0 day
# [24] = biological target: Voltage-gated inwardly rectifying potassium channel KCNH2 (Homo sapiens, UniProt Q12809); assay: Antagonist activity at human ERG
# [25] = Cmax in CD1 mouse plasma at 10 mg/kg, po measured upto 24 hrs by LC-MS/MS anlaysis; type: ADME, organism-based; parameters: route oral, dose 10 mg/kg, time <=24; details: in vivo
# CYP2C19 = CYP2C19 (Homo sapiens, UniProt P33261); assay: Inhibition of CYP2C19 (unknown origin) at 10 uM relative to control; type: ADME
# [26] = AUC in CD1 mouse plasma at 10 mg/kg, po measured upto 24 hrs by LC-MS/MS anlaysis; type: ADME, organism-based; parameters: route oral, dose 10 mg/kg, time <=24; details: in vivo
# [27] = Cmax in CD1 mouse plasma at 1 mg/kg, iv measured upto 6 hrs by LC-MS/MS anlaysis; type: ADME, organism-based; parameters: route intravenous, dose 1 mg/kg, time <=6; details: in vivo
# Cryptosporidium parvum [28] = assay: Anti-cryptosporidial activity against Cryptosporidium parvum infected in HCT-8 cells assessed as rate of parasite elimination at 6 times of EC90 concentration pre-infected for 24 hrs followed by compound treatment measured after 98 hrs; type: functional
# [29] = Cmax in CD1 mouse jejunum at 10 mg/kg, po measured upto 24 hrs by LC-MS/MS anlaysis; type: ADME, organism-based; parameters: route oral, dose 10 mg/kg, time <=24; details: in vivo
# [30] = AUC in CD1 mouse jejunum at 10 mg/kg, po measured upto 24 hrs by LC-MS/MS anlaysis; type: ADME, organism-based; parameters: route oral, dose 10 mg/kg, time <=24; details: in vivo
# [31] = Volume of distribution in CD1 mouse plasma at 1 mg/kg, iv measured upto 6 hrs by LC-MS/MS anlaysis; type: ADME, organism-based; details: in vivo
# T1 sequence (Q12809 whole entry): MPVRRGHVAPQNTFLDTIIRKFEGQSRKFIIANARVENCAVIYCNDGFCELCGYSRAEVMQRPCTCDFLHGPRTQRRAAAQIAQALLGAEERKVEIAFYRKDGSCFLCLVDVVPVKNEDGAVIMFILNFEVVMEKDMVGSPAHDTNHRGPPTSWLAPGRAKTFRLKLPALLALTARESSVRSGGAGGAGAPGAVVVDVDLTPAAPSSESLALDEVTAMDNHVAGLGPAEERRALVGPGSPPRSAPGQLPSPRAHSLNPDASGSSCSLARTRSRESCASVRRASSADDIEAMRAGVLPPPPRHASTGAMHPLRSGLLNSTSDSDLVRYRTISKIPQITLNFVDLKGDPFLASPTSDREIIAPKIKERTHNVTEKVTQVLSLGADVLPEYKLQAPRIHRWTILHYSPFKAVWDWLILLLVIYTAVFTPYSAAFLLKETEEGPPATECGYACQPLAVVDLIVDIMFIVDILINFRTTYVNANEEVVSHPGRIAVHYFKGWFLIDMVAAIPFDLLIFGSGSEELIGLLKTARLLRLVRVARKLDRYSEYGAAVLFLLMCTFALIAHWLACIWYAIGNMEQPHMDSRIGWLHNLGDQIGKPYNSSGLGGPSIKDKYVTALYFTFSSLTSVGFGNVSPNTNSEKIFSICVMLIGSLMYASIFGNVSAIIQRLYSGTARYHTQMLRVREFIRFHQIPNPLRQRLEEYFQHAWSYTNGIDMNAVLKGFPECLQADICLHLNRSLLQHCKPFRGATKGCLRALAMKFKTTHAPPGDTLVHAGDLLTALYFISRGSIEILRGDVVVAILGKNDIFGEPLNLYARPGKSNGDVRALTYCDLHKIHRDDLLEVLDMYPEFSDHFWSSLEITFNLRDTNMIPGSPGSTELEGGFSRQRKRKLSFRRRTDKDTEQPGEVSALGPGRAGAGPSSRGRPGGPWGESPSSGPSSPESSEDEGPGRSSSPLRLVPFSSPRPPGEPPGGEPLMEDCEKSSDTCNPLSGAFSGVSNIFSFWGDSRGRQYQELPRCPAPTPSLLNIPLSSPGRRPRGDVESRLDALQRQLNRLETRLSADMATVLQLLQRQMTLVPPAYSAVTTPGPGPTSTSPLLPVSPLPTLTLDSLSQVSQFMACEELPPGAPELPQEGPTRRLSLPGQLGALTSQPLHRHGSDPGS
# Sequence of CYP2C19 (P33261 whole entry): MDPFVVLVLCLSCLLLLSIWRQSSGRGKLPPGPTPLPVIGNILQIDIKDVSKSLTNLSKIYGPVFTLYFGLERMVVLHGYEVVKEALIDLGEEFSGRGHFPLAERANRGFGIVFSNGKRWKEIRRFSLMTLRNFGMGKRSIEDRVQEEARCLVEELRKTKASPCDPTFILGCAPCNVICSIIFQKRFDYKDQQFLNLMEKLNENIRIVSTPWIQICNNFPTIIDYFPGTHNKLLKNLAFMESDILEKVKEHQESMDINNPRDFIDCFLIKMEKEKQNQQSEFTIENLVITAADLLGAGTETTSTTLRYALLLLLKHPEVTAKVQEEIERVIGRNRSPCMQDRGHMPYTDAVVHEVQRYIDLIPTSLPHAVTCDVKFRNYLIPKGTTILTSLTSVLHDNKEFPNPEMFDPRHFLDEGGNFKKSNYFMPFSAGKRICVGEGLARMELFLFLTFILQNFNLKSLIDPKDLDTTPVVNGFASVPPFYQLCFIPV
# Sequence of Voltage-gated inwardly rectifying potassium channel KCNH2 (Q12809 whole entry): as the sequence (Q12809 whole entry) above
# Sequence of CYP2C9 (P11712 whole entry): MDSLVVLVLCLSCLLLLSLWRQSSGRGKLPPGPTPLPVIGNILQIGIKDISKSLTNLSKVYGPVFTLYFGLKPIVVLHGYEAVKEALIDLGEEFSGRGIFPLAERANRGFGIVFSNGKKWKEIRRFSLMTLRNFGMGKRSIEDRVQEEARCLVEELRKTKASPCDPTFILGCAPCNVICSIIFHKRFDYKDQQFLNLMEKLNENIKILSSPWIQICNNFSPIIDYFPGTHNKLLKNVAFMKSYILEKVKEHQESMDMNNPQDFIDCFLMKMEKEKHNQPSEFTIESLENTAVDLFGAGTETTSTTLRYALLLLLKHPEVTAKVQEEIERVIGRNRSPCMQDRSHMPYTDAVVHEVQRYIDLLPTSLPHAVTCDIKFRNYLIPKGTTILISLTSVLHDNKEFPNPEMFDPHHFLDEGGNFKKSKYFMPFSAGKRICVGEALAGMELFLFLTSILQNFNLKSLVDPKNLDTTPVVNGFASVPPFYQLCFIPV
smiles,measurement,setting,value
O=C(Cc1ccc([N+](=O)[O-])cc1)N1CCN(c2ccc3nncn3n2)CC1,EC50,Cryptosporidium parvum [1],2.5 µM
O=S(=O)(Cc1ccc(Cl)c(Cl)c1)N1CCN(c2ccc3nncn3n2)CC1,EC50,Cryptosporidium parvum [1],> 25 µM
CN(C(=O)N1CCN(c2ccc3nncn3n2)CC1)c1ccc(Cl)c(Cl)c1,EC50,Cryptosporidium parvum [1],29 µM
CC(=O)Oc1ccccc1C(=O)Nc1ncc([N+](=O)[O-])s1 [NITAZOXANIDE],Activity,Cryptosporidium parvum [2],Active
same,EC50,Cryptosporidium parvum [1],2 µM
O=C(Nc1ccc(Cl)c(Cl)c1)N1CCN(c2ccc3nncn3n2)CC1,inhibition at 10 µM,hERG (KCNH2) [3],56%
same,inhibition at 100 µM,hERG (KCNH2) [4],94%
same,t1/2,[5],> 30 min
same,t1/2,[6],> 30 min
same,Activity,Cryptosporidium parvum [7],Active
same,EC50,Cryptosporidium parvum [1],0.55 µM
same,inhibition at 10 µM,hERG (KCNH2) [8],87%
same,EC50,Cryptosporidium hominis,0.56 µM
same,Ratio,[9],12
same,inhibition at 1 µM,hERG (KCNH2) [10],41%
same,solubility kinetic,[11],1.8 µM
same,CC50,HCT-8,> 100 µM
O=C(Cc1ccc(Cl)c(Cl)c1)NC1CCN(c2ccc3nncn3n2)CC1,EC50,Cryptosporidium parvum [1],> 25 µM
O=C(Cc1ccc(Cl)c(Cl)c1)N1CCC(c2ccc3nncn3n2)CC1,t1/2,[5],7.8 min
same,EC50,Cryptosporidium parvum [1],11 µM
same,Ratio,[9],9.8
O=C(Cc1cccc2ccccc12)N1CCN(c2ccc3nncn3n2)CC1,EC50,Cryptosporidium parvum [1],17.1 µM
O=C(Cc1ccc2ccccc2c1)N1CCN(c2ccc3nncn3n2)CC1,EC50,Cryptosporidium parvum [1],14 µM
O=C(N1CCN(c2ccc3nncn3n2)CC1)C(F)(F)c1ccc(Cl)c(Cl)c1,EC50,Cryptosporidium parvum [1],2.3 µM
O=C(Nc1ccc(Cl)cc1)N1CCN(c2ccc3nncn3n2)CC1,inhibition at 10 µM,hERG (KCNH2) [3],8%
same,inhibition at 100 µM,hERG (KCNH2) [4],88%
same,t1/2,[5],> 30 min
same,t1/2,[6],> 30 min
same,EC50,Cryptosporidium parvum [1],2.1 µM
same,inhibition at 10 µM,hERG (KCNH2) [8],48%
same,EC50,Cryptosporidium hominis,6 µM
same,Ratio,[9],8.9
same,inhibition at 1 µM,hERG (KCNH2) [10],12%
same,solubility kinetic,[11],200 µM
same,CC50,HCT-8,> 100 µM
N#Cc1ccc(CC(=O)N2CCN(c3ccc4nncn4n3)CC2)cc1,EC50,Cryptosporidium parvum [1],11 µM
O=C(C(=O)N1CCN(c2ccc3nncn3n2)CC1)c1ccc(Cl)c(Cl)c1,EC50,Cryptosporidium parvum [1],2.2 µM
O=C(Cc1ccc(Cl)c(Cl)c1)N1CCN(c2ccc3nncn3n2)CC1,inhibition at 10 µM,hERG (KCNH2) [3],11%
same,Vd,[12],0.13 L/kg
same,inhibition at 100 µM,hERG (KCNH2) [4],94%
same,Emax,hERG (KCNH2) [13],79%
same,AUC,[14],50000 ng·h/mL
same,PPB,[15],92.4%
same,t1/2,[16],324 min
same,t1/2,[5],> 30 min
same,Cmax,[17],15000 ng/mL
same,t1/2,[6],> 30 min
same,Activity,Cryptosporidium parvum [7],Active
same,inhibition at 10 µM,CYP2C9,31%
same,AUC,[18],55000 ng·h/mL
same,PPB,[19],97.8%
same,inhibition at 10 µM,hERG (KCNH2) [8],67%
same,F,[20],1%
same,t1/2,[21],132 min
same,Activity,Cryptosporidium parvum [22],>99%
same,Activity,Cryptosporidium parvum [23],Active
same,EC50,[24],7.7 µM
same,Cmax,[25],1500 ng/mL
same,inhibition at 10 µM,CYP2C19,44%
same,AUC,[26],5200 ng·h/mL
same,inhibition at 1 µM,hERG (KCNH2) [10],19%
same,Cmax,[27],17000 ng/mL
same,solubility kinetic,[11],18 µM
same,Activity,Cryptosporidium parvum [28],99.9%
same,Cmax,[29],36000 ng/mL
same,CC50,HCT-8,> 100 µM
same,AUC,[30],240000 ng·h/mL
same,Vd,[31],0.062 L/kg
CC1CN(c2ccc3nncn3n2)CCN1C(=O)Nc1ccc(Cl)c(Cl)c1 (centres undefined),EC50,Cryptosporidium parvum [1],32 µM
